Assay results reported in US9434711B2 (Janssen Pharmaceutica, NV, priority 2007, dated 2016).
pIC50: −log10 of the molar value.

Target: canine TRPM8 (Canis lupus familiaris, UniProt Q1A7N1)
Test: In Vitro Canine TRPM8 Functional Assay (Ca2+ fluorescence, icilin activation)
Format: cell-based
Conditions: for pIC50: HEK293 cells stably expressing canine TRPM8, icilin activation, eight-point dose-response, read-out: IC50; for % Inh @ 0.2 (μM) / inhibition at 0.2 µM: compound at 0.2 μM, canine TRPM8, icilin activation; for inhibition at 0.2 µM: read-out: % Inh @ 0.2
How it was run: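 HEK293 cells stably expressing canine TRPM8 loaded with Calcium 3 dye; compound added and Ca2+ fluorescence monitored 5 min before icilin at a final level giving ~80% maximal response, read on FLIPR or FDSS. EC50 or IC50 from eight-point dose-response, quadruplicate wells per point.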

Chain of canine TRPM8 (Q1A7N1 1-1104): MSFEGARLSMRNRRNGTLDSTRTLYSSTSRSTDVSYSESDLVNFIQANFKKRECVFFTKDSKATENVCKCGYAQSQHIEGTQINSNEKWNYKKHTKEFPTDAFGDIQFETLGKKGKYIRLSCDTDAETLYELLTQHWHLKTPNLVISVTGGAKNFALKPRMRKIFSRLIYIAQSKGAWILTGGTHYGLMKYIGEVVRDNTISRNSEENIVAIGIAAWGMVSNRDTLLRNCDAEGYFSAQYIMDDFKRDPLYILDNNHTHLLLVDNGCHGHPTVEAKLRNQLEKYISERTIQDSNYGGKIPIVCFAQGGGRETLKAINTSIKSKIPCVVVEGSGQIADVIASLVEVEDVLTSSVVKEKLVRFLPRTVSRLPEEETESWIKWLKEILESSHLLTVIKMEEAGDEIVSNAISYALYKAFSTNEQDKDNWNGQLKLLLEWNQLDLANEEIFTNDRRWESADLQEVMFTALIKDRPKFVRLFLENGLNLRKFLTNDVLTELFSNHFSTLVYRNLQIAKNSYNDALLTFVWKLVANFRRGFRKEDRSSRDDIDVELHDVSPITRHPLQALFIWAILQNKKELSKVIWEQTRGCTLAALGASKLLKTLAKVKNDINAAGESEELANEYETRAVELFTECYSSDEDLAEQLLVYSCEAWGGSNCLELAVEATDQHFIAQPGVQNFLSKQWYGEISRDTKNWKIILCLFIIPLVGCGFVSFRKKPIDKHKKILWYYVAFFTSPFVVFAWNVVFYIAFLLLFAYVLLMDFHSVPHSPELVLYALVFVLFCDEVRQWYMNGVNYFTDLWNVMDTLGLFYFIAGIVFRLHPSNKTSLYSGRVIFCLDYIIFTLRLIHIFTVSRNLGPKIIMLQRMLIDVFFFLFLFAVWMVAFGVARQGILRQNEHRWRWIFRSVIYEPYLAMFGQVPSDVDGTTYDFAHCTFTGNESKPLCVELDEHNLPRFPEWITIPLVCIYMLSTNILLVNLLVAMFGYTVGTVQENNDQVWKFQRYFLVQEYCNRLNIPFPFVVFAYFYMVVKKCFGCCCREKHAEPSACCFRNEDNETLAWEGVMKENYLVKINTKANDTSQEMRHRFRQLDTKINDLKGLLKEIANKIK

SMILES | pIC50 | % Inh @ 0.2 (μM) [%] | inhibition at 0.2 µM [%]
CCCCN(c1cc2ccccc2s1)S(=O)(=O)c1ccc(C(N)=NC(=O)CO)cc1 [Compound 472, N-(Benzo[b]thiophen-2-yl)-N-(butyl)-4-N-hydroxyacetyl-benzamidine sulfonamide] | 7.40 | 88 | 
CCCCN(c1sc2ccccc2c1Br)S(=O)(=O)c1ccc(C(N)=NO)cc1 [Compound 473, N-(3-Bromo-benzo[b]thiophen-2-yl)-N-(butyl)-4-N-hydroxy-benzamidinesulfonamide] | 8.05 | 102 | 
O=S(=O)(c1ccc(-c2nnn[nH]2)cc1)N(CC1CC1)c1sc2ccccc2c1Br [Compound 474, N-(3-Bromo-benzo[b]thiophen-2-yl)-N-(cyclopropyl-methyl)-4-(1H-tetrazol-5-yl)-benzenesulfonamide] | 8.10 |  | 101
O=S(=O)(c1ccc(-c2nnn[nH]2)cc1)N(Cc1ccc(F)c(C(F)(F)F)c1)c1sc2ccccc2c1Br [Compound 475, N-(3-Bromo-benzo[b]thiophen-2-yl)-N-(4-fluoro-3-trifluoromethyl-benzyl)-4-(1H-tetrazol-5-yl)-benzenesulfonamide] | 8.70 |  | 102
O=S(=O)(c1ccc(Br)cc1)N(CCC(F)(F)F)c1cc2ccccc2s1 [Compound 476, N-(Benzo[b]thiophen-2-yl)-4-(bromo)-N-(3,3,3-trifluoro-propyl)-benzenesulfonamide] |  |  | 39
CCCCN(c1sc2ccccc2c1Cl)S(=O)(=O)c1ccc(C(=O)O)cc1 [Compound 477, N-(3-Chloro-benzo[b]thiophen-2-yl)-N-(butyl)-4-carboxy-benzenesulfonamide] | 7.92 |  | 100
O=C(O)c1ccc(S(=O)(=O)N(CC2CC2)c2sc3ccccc3c2Cl)cc1 [Compound 478, N-(3-Chloro-benzo[b]thiophen-2-yl)-N-(cyclopropylmethyl)-4-carboxy-benzenesulfonamide] | 7.60 |  | 99
O=C(O)c1ccc(S(=O)(=O)N(CCC(F)(F)F)c2sc3ccccc3c2Cl)cc1 [Compound 480, N-(3-Chloro-benzo[b]thiophen-2-yl)-N-(3,3,3-trifluoro-propyl)-4-carboxy-benzenesulfonamide] | 7.89 |  | 100
CCCCN(c1sc2ccccc2c1Br)S(=O)(=O)c1ccc(-c2noc(=S)[nH]2)cc1 [Compound 481, N-(3-Bromo-benzo[b]thiophen-2-yl)-N-(butyl)-4-(5-thioxo-4,5-dihydro-[1,2,4]oxadiazol-3-yl)-benzenesulfonamide] |  |  | 69
N/C(=N\O)c1ccc(S(=O)(=O)N(Cc2ccc(F)c(C(F)(F)F)c2)c2cc3ccccc3s2)cc1 [Compound 482, N-(Benzo[b]thiophen-2-yl)-N-(4-fluoro-3-trifluoromethyl-benzyl)-4-N-hydroxy-benzamidinesulfonamide] | 7.62 | 100 | 
O=c1[nH]c(-c2ccc(S(=O)(=O)N(Cc3ccc(F)c(C(F)(F)F)c3)c3cc4ccccc4s3)cc2)no1 [Compound 483, N-(Benzo[b]thiophen-2-yl)-N-(4-fluoro-3-trifluoromethyl-benzyl)-4-(5-oxo-4,5-dihydro-[1,2,4]oxadiazol-3-yl)-benzenesulfonamide] | 8.05 |  | 101
CCCCN(c1sc2ccccc2c1Br)S(=O)(=O)c1ccc(C2=NOS(=O)N2)cc1 (stereo not drawn) [Compound 484, N-(3-Bromo-benzo[b]thiophen-2-yl)-N-(butyl)-4-(3H-[1,2,3,5]oxathiadiazole-2-oxide)-benzenesulfonamide] | 7.68 | 100 | 
CCCCN(c1sc2ccccc2c1Cl)S(=O)(=O)c1ccc(C2=NOS(=O)N2)cc1 (stereo not drawn) [Compound 485, N-(3-Chloro-benzo[b]thiophen-2-yl)-N-(butyl)-4-(3H-[1,2,3,5]oxathiadiazole-2-oxide)-benzenesulfonamide] | 7.68 | 96 | 
